Among the data in US9340577B2, “HLA binding motifs and peptides and their uses” (priority 1992, dated 2016) are IC50 values, retold here.

No end group written: not given here.

Targets include HLA-A3.2 (A*0301) (Homo sapiens, UniProt P04439); HLA-A11 (A*1101) (Homo sapiens, UniProt P04439, A114D/D185E/E176A/F33Y/L180Q/S129P/T187R); A31 (A*3101) (Homo sapiens, UniProt P04439, A270S/D185E/E176V/E277Q/F33T/G231S/G80R/H175R/I121M/I218V/I322F/K168Q/L300P/L318F/M331R/P217A/Q94H/R138Q/T323A/T345S/T97I/V358M); A*3301 (Homo sapiens, UniProt P04439, A270S/D185E/E176V/E277Q/E87N/F33T/G231S/H175R/I121M/I218V/I322F/K168Q/K210R/L300P/L318F/M331R/P217A/Q86R/Q94H/R138Q/T323A/T345S/T97I/V358M/Y195H); A*6801 (Homo sapiens, UniProt P04439, A269V/D185E/E176V/E277Q/E87N/F33Y/G231S/I121M/I166T/I218V/L180W/L300P/L318F/N151K/P208A/P217A/Q86R/R169H/T345S).

What all share (assay): biochemical
Assay type in all cases: binding

ETLNASPYK [Peptide 1589.39]: the IC50 on HLA-A3.2 (A*0301) is 0.163 µM; against HLA-A11 (A*1101) it was 0.027 µM; against A31 (A*3101), greater than 20 µM; against A*3301 it was 4.71 µM; against A*6801 it was 0.028 µM.
In the case of ETQRQQFLK [Peptide 1589.32], the IC50 on HLA-A3.2 (A*0301) was found to be 1.01 µM; on HLA-A11 (A*1101) it was 0.028 µM; against A31 (A*3101), 3.92 µM; against A*3301 it was 0.08 µM; against A*6801 it was 0.03 µM.
With EVLMWKFDSR [Peptide 9017.0192], the IC50 is greater than 20 µM at HLA-A3.2 (A*0301); 7.63 µM at HLA-A11 (A*1101); 0.436 µM on A31 (A*3101); 0.062 µM on A*3301; 0.0028 µM at A*6801.
As to FADLTVVYR [Peptide 78.0318], the IC50 at HLA-A3.2 (A*0301) was 19.2 µM; on HLA-A11 (A*1101), 9.02 µM; against A31 (A*3101) it was 1.78 µM; against A*3301 it was 0.31 µM; against A*6801, 0.039 µM.
On to FIHFRIGCR [Peptide 9017.0112], for which the IC50 against HLA-A3.2 (A*0301) is 1.01 µM; on HLA-A11 (A*1101), 7.12 µM; on A31 (A*3101), 0.061 µM; against A*3301, 0.013 µM; at A*6801, 0.067 µM.
On to FLSALKLFLK [Peptide 1587.38], for which the IC50 came out at 0.715 µM against HLA-A3.2 (A*0301); 0.165 µM against HLA-A11 (A*1101); 0.984 µM against A31 (A*3101); 2.59 µM against A*3301; 1.56 µM against A*6801.
Regarding FLSQVKIPK [Peptide 1589.05], the IC50 on HLA-A3.2 (A*0301) worked out at 0.086 µM; on HLA-A11 (A*1101), 0.022 µM; at A31 (A*3101), 0.072 µM; on A*3301, 0.158 µM; on A*6801, 0.048 µM.
For FTAFLVAFK [Peptide 88.0389], the IC50 against HLA-A3.2 (A*0301) worked out at 0.045 µM; at HLA-A11 (A*1101), 0.015 µM; against A31 (A*3101), 0.663 µM; against A*3301, 0.076 µM; against A*6801, 0.023 µM.
With FTDLRIVYR [Peptide 1550.08], the IC50 on HLA-A3.2 (A*0301) is 2.94 µM; against HLA-A11 (A*1101), 10.5 µM; on A31 (A*3101), 0.065 µM; against A*3301 it was 0.0097 µM; on A*6801 it was 0.158 µM.
Consider GLGISYGRK [Peptide 1577.25], for which the IC50 against HLA-A3.2 (A*0301) is 0.064 µM; at HLA-A11 (A*1101), 2.15 µM; against A31 (A*3101) it was greater than 20 µM; against A*3301, greater than 20 µM; against A*6801, greater than 20 µM.
GLYYWCDGEK [Peptide 88.0229]: the IC50 on HLA-A3.2 (A*0301) was 0.107 µM; against HLA-A11 (A*1101) it was 0.024 µM; against A31 (A*3101) it was 5.1 µM; at A*3301, greater than 20 µM; against A*6801 it was 10 µM.
Consider GSLQYLALK [Peptide 9017.0096], for which the IC50 on HLA-A3.2 (A*0301) amounted to 0.017 µM; against HLA-A11 (A*1101), 0.0066 µM; at A31 (A*3101) it was 0.072 µM; on A*3301, 14.4 µM; against A*6801 it was 10 µM.
In the case of GSQPKTACNK [Peptide 9017.0202], the IC50 against HLA-A3.2 (A*0301) is 0.472 µM; on HLA-A11 (A*1101), 0.03 µM; against A31 (A*3101) it was 1.48 µM; at A*3301, greater than 20 µM; on A*6801, 15.8 µM.
Consider GTAKSVTCTR [Peptide 1556.31], for which the IC50 against HLA-A3.2 (A*0301) came to 0.96 µM; on HLA-A11 (A*1101), 0.098 µM; against A31 (A*3101), 0.214 µM; against A*3301, 0.168 µM; against A*6801, 0.208 µM.
GTFKCSAGK [Peptide 88.0373]: the IC50 at HLA-A3.2 (A*0301) stood at 0.023 µM; against HLA-A11 (A*1101), 0.014 µM; on A31 (A*3101), 0.617 µM; on A*3301, 18.2 µM; against A*6801 it was 0.081 µM.
Consider GTMCRHYKR [Peptide 1587.34], for which the IC50 came out at 0.611 µM at HLA-A3.2 (A*0301); 0.031 µM against HLA-A11 (A*1101); 0.02 µM against A31 (A*3101); 0.226 µM on A*3301; 0.056 µM on A*6801.
Regarding GTRQARKNRR [Peptide 9017.0200], the IC50 against HLA-A3.2 (A*0301) was found to be 1.55 µM; against HLA-A11 (A*1101), 2.92 µM; on A31 (A*3101) it was 0.056 µM; against A*3301 it was 8.37 µM; on A*6801, 1.48 µM.

A word on the IC50: it is the point on the concentration scale where inhibition reaches its midpoint. Read a low IC50 as greater potency.
